7 compounds from ChEMBL document CHEMBL3046419, “Nematicidal activity of anion transport blockers against Meloidogyne incognita, Caenorhabditis elegans and Heterorhabditis bacteriophora” (Pest Manag Sci, 2008) can be followed below.

Assay [1] deals with Heterorhabditis bacteriophora. Description: Nematicidal activity against J3 juveniles of Heterorhabditis bacteriophora assessed as mortality at 200 mg/l after 24 hr relative to control. The assay is classed as functional.
The subject of assay [2] is Heterorhabditis bacteriophora. Description: Nematicidal activity against J3 juveniles of Heterorhabditis bacteriophora assessed as mortality at < 200 mg/l. Type of assay: functional, organism-based.
For assay [3], the system named is Heterorhabditis bacteriophora. Briefly: Nematicidal activity against J3 juveniles of Heterorhabditis bacteriophora assessed as mortality at 200 mg/l after 168 hr relative to control. Type of assay: functional.
Assay [4] deals with Caenorhabditis elegans. Description: Nematicidal activity against adult Caenorhabditis elegans after 24 hr. The assay is classed as functional.
Assay [5] has as its system Caenorhabditis elegans. Briefly: Nematicidal activity against J4 juvenile of Caenorhabditis elegans after 24 hr. Type of assay: functional.
In assay [6] the test system is Caenorhabditis elegans. Briefly: Inhibition of […] in Caenorhabditis elegans N2 Bristol assessed as increase in pharyngeal musle contraction frequency at 50 mg/l after 6 hr relative to control. The assay is classed as functional, organism-based.
Assay [7] relates to Caenorhabditis elegans. Briefly: Inhibition of […] in Caenorhabditis elegans N2 Bristol assessed as increase in pharyngeal musle contraction frequency at 50 mg/l after 1 hr relative to control. The assay is classed as functional.
Assay [8] relates to Meloidogyne incognita. Description: Ovicidal activity against Meloidogyne incognita (root-knot nematode) eggs after 168 hr. The assay is classed as functional, organism-based.
In assay [9] the test system is Meloidogyne incognita. Briefly: Ovicidal activity against Meloidogyne incognita (root-knot nematode) eggs after 120 hr. Type of assay: functional, organism-based.
In assay [10] the test system is Meloidogyne incognita. Description: Ovicidal activity against Meloidogyne incognita (root-knot nematode) eggs assessed as inhibition of egg hatching at 40 mg/l after 120 hr relative to control. The assay is classed as functional.
The subject of assay [11] is Meloidogyne incognita. Briefly: Ovicidal activity against Meloidogyne incognita (root-knot nematode) eggs assessed as inhibition of egg hatching at 40 mg/l after 24 to 72 hr relative to control. Type of assay: functional. To be noted: read-out: mortality.
In assay [12] the test system is Meloidogyne incognita. Description: Nematicidal activity against J2 juveniles of Meloidogyne incognita (root-knot nematode) after 168 hr relative to control. Type of assay: functional.
Assay [13] relates to Meloidogyne incognita. Description: Nematicidal activity against J2 juveniles of Meloidogyne incognita (root-knot nematode) after 120 hr relative to control. Type of assay: functional.
In assay [14] the test system is Meloidogyne incognita. Description: Nematicidal activity against J2 juveniles of Meloidogyne incognita (root-knot nematode) after 72 hr relative to control. The assay is classed as functional.
Assay [15] relates to Meloidogyne incognita. Briefly: Nematicidal activity against J2 juveniles of Meloidogyne incognita (root-knot nematode) assessed as mortality at 40 mg/l after 48 hr relative to control. Type of assay: functional.
Assay [16] relates to Caenorhabditis elegans. Briefly: Nematicidal activity against adult Caenorhabditis elegans N2 Bristol after 168 hr. The assay is classed as functional.
Assay [17] has as its system Caenorhabditis elegans. Briefly: Nematicidal activity against adult Caenorhabditis elegans N2 Bristol after 120 hr. The assay is classed as functional.
Assay [18] relates to Caenorhabditis elegans. Description: Nematicidal activity against adult Caenorhabditis elegans N2 Bristol after 48 hr. Type of assay: functional.
Assay [19] relates to Caenorhabditis elegans. Description: Nematicidal activity against adult Caenorhabditis elegans N2 Bristol after 72 hr. The assay is classed as functional.
Assay [20] has as its system Caenorhabditis elegans. Briefly: Nematicidal activity against adult Caenorhabditis elegans N2 Bristol assessed as mortality at 40 mg/l after 24 hr relative to control. The assay is classed as functional.
The test system of assay [21] is Caenorhabditis elegans. Briefly: Nematicidal activity against adult Caenorhabditis elegans N2 Bristol assessed as mortality at 40 mg/l after 120 hr relative to control. The assay is classed as functional.
The subject of assay [22] is Caenorhabditis elegans. Briefly: Nematicidal activity against adult Caenorhabditis elegans N2 Bristol assessed as mortality at 40 mg/l after 48 hr relative to control. The assay is classed as functional.
The target of assay [23] is T1, Chloride channel protein clh-3 (Caenorhabditis elegans) (UniProt Q9BMK9).
T1 sequence (whole entry): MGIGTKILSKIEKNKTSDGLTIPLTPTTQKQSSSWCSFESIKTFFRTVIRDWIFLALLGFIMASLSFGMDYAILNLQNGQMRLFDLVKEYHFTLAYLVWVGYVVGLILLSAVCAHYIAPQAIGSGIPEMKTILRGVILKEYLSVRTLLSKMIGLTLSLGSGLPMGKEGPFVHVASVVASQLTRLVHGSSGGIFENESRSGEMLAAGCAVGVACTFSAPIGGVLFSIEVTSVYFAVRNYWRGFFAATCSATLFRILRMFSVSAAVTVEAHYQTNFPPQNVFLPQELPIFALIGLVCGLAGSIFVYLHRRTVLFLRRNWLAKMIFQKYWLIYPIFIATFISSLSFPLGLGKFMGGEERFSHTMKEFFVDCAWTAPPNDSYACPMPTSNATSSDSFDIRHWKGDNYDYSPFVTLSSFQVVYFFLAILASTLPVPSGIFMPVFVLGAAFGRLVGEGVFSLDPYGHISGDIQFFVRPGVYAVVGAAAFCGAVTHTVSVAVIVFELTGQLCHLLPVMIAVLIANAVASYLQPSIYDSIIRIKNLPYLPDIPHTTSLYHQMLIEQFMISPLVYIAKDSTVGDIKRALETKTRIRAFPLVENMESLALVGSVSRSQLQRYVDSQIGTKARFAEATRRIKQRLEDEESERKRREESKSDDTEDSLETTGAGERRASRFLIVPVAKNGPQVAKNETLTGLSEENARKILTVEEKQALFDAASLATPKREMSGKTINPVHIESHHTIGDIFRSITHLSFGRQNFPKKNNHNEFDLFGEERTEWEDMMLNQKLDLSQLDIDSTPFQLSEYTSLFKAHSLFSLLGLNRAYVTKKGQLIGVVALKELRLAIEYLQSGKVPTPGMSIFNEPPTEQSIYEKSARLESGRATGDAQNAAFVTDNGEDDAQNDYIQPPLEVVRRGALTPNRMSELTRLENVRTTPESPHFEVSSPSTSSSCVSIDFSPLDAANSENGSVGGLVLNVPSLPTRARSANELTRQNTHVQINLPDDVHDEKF
To be noted: 100 uM.
Description: Inhibition of CECLC-3 in Caenorhabditis elegans oocyte membrane at 100 uM

Assay [24] deals with Bursaphelenchus xylophilus. Description: Nematicidal activity against Bursaphelenchus xylophilus assessed as mortality at 1 mg/l after 48 hr relative to control. The assay is classed as functional.

In general, mortality refers to the share of the test organisms that died. One may read the LC50 as the concentration that kills 50% of the test population. Usually inhibition stands for the drop in the measured response relative to a control, in per cent. As usually defined, the EC50 is the concentration giving half of the maximal effect. A high value points to a less potent agent.

≈ marks a conversion by molar mass, not a printed value. Calls of active or inactive are those of the source. The rule behind the calls is not given here.

Turning to `CCOP(=S)(OCC)Oc1nc(Cl)c(Cl)cc1Cl` [CHLORPYRIFOS], the mortality at 200 µg/mL in assay [1] is 100%; in assay [3], under 15%. Also, in assay [2], the outcome was Active.

As for `CC(C)c1c(O)cc(/C=C/c2ccccc2)cc1O` [TAPINAROF], the LC50 in the assay with Caenorhabditis elegans [4] and in the assay on Caenorhabditis elegans [5] was 50 µg/mL (≈ 197 µM) each time.

`C[C@@]1(C2CCCC2)Cc2cc(OCCC(=O)O)c(Cl)c(Cl)c2C1=O` [INDANYLOXYACETIC ACID]: the inhibition entry with Caenorhabditis elegans [6] was “inactive”.

In the case of `O=C(O)c1cc([N+](=O)[O-])ccc1NCCCc1ccccc1` [5-NITRO-2-PHENYLPROPYLAMINOBENZOIC ACID [NPPB]], in assay [3], the mortality at 200 µg/mL is under 15%. Also, in the assay with Caenorhabditis elegans [6], the inhibition result is “inactive”. Also, the inhibition at 50 µg/mL in the assay with Caenorhabditis elegans [7] amounted to 20%. The EC50 in the assay on Meloidogyne incognita [8] came to 34.1 µg/mL (≈ 113 µM); in the assay with Meloidogyne incognita [9] it was 46.5 µg/mL (≈ 155 µM). In addition, the inhibition at 40 µg/mL in the assay with Meloidogyne incognita [10] stood at 50%. Moreover, the inhibition of egg hatching at 40 µg/mL in the assay on Meloidogyne incognita [11] is under 50%. Besides, the LC50 amounted to 5.27 µg/mL (≈ 17.5 µM) in the assay on Meloidogyne incognita [12]; 8.09 µg/mL (≈ 26.9 µM) in the assay on Meloidogyne incognita [13]; 20.1 µg/mL (≈ 66.9 µM) in the assay on Meloidogyne incognita [14]; 4.56 µg/mL (≈ 15.2 µM) in the assay on Caenorhabditis elegans [16]; 7.44 µg/mL (≈ 24.8 µM) in the assay with Caenorhabditis elegans [17]; 38.4 µg/mL (≈ 128 µM) in the assay on Caenorhabditis elegans [18]. In the assay with Caenorhabditis elegans [19], the LC50 came to 15.9 µg/mL (≈ 52.8 µM). The mortality at 40 µg/mL is under 50% with Meloidogyne incognita [15], under 50% in the assay on Caenorhabditis elegans [20], 100% with Caenorhabditis elegans [21] and over 50% in the assay with Caenorhabditis elegans [22]. This compound also had an inhibition in assay [23] of 90%.

As for `COc1ccc(/C=C/c2ccccc2O)cc1` [2-hydroxy-4'-methoxystilbene], the mortality at 1 µg/mL in [24] is 95%.

Turning to `O=S(=O)(O)c1cc(N=C=S)ccc1/C=C/c1ccc(N=C=S)cc1S(=O)(=O)O`, in assay [3], the mortality at 200 µg/mL was under 15%. The inhibition entry in the assay on Caenorhabditis elegans [6] was “inactive”. Further, the inhibition at 50 µg/mL in the assay on Caenorhabditis elegans [7] is 20%. The EC50 in the assay on Meloidogyne incognita [8] was determined as 23.4 µg/mL (≈ 51.6 µM); with Meloidogyne incognita [9] it was 29.1 µg/mL (≈ 64.1 µM). The inhibition at 40 µg/mL in the assay on Meloidogyne incognita [10] amounted to 50%. Moreover, the inhibition of egg hatching at 40 µg/mL in the assay on Meloidogyne incognita [11] was under 50%. Also, the LC50 with Meloidogyne incognita [12] is 4.46 µg/mL (≈ 9.81 µM); in the assay with Meloidogyne incognita [13] it was 7.48 µg/mL (≈ 16.5 µM); in the assay on Meloidogyne incognita [14], 15.4 µg/mL (≈ 33.8 µM); with Caenorhabditis elegans [16] it was 3.14 µg/mL (≈ 6.91 µM); in the assay with Caenorhabditis elegans [17], 4.46 µg/mL (≈ 9.81 µM); in the assay with Caenorhabditis elegans [18], 29.6 µg/mL (≈ 65.2 µM). This compound also displayed an LC50 in the assay on Caenorhabditis elegans [19] of 8.9 µg/mL (≈ 19.6 µM). For the same compound, the mortality at 40 µg/mL in the assay on Meloidogyne incognita [15] is under 50%; in the assay with Caenorhabditis elegans [20], under 50%; in the assay with Caenorhabditis elegans [21], 100%; with Caenorhabditis elegans [22], over 50%.

As to `O=C(O)c1c2ccccc2cc2ccccc12` [ANTHRACENE-9-CARBOXYLIC ACID], the mortality at 200 µg/mL in assay [3] is under 15%. In addition, the inhibition entry in the assay on Caenorhabditis elegans [6] was “inactive”. The inhibition at 50 µg/mL with Caenorhabditis elegans [7] turned out to be 20%. In the assay on Meloidogyne incognita [8], this compound yielded an EC50 of 48 µg/mL (≈ 216 µM). Besides, the inhibition at 40 µg/mL with Meloidogyne incognita [10] is under 50%. Besides, the inhibition of egg hatching at 40 µg/mL in the assay on Meloidogyne incognita [11] is under 50%. Also, the LC50 in the assay on Meloidogyne incognita [12] was determined as 6.27 µg/mL (≈ 28.2 µM); with Meloidogyne incognita [13], 11.2 µg/mL (≈ 50.6 µM); in the assay on Meloidogyne incognita [14] it was 26.8 µg/mL (≈ 120 µM); with Caenorhabditis elegans [16], 5.35 µg/mL (≈ 24.1 µM); in the assay with Caenorhabditis elegans [17], 8.44 µg/mL (≈ 38 µM); in the assay with Caenorhabditis elegans [18], 42.7 µg/mL (≈ 192 µM). Besides, the LC50 with Caenorhabditis elegans [19] was 17.8 µg/mL (≈ 80 µM). Besides, the mortality at 40 µg/mL was under 50% with Meloidogyne incognita [15], under 50% in the assay on Caenorhabditis elegans [20], 100% in the assay on Caenorhabditis elegans [21] and 45% with Caenorhabditis elegans [22].
